Legend:
Conditions in all cases: 72 h
[1] = tested on: HepG2; test: relative viability EC50 (midpoint between 100% and the lowest measured viability); higher = less toxic
[2] = tested on: Calu-3; test: as above
[3] = tested on: U2OS; test: as above
[4] = tested on: Vero E6; test: as above
[5] = tested on: Caco-2; test: as above
[6] = tested on: HepG2; test: drug sensitivity score (DSS) for viability; higher = more toxic; extreme values may be limits of the assay
[7] = tested on: Calu-3; test: as above
[8] = tested on: U2OS; test: as above
[9] = tested on: Vero E6; test: as above
[10] = tested on: Caco-2; test: as above
[11] = tested on: HepG2; test: cell viability relative to DMSO; higher = less toxic
[12] = tested on: Calu-3; test: as above
[13] = tested on: U2OS; test: as above
[14] = tested on: Vero E6; test: as above
[15] = tested on: Caco-2; test: as above

Row | Compound | relative viability EC50 [1] | relative viability EC50 [2] | relative viability EC50 [3] | relative viability EC50 [4] | relative viability EC50 [5] | drug sensitivity score [6] | drug sensitivity score [7] | drug sensitivity score [8] | drug sensitivity score [9] | drug sensitivity score [10] | cell viability ([11]; 1 nM) | cell viability ([11]; 10 nM) | cell viability ([11]; 100 nM) | cell viability ([11]; 1000 nM) | cell viability ([11]; 10000 nM) | cell viability ([12]; 1 nM) | cell viability ([12]; 10 nM) | cell viability ([12]; 100 nM) | cell viability ([12]; 1000 nM) | cell viability ([12]; 10000 nM) | cell viability ([13]; 1 nM) | cell viability ([13]; 10 nM) | cell viability ([13]; 100 nM) | cell viability ([13]; 1000 nM) | cell viability ([13]; 10000 nM) | cell viability ([14]; 1 nM) | cell viability ([14]; 10 nM) | cell viability ([14]; 100 nM) | cell viability ([14]; 1000 nM) | cell viability ([14]; 10000 nM) | cell viability ([15]; 1 nM) | cell viability ([15]; 10 nM) | cell viability ([15]; 100 nM) | cell viability ([15]; 1000 nM) | cell viability ([15]; 10000 nM)
1 | CN1CCN(c2ccc(-c3cccc(CN4CCOCC4)c3)cc2NC(=O)c2c[nH]c(=O)cc2C(F)(F)F)CC1 [OICR-9429] | > 10 µM | > 10 µM | > 10 µM | > 10 µM | > 10 µM | 0 | 0 | 0 | 0 | 0 | 108% | 98.7% | 99.7% | 95.8% | 95% | 97% | 108% | 98% | 104% | 88.3% | 102% | 98.2% | 99.2% | 97.4% | 100% | 99.1% | 101% | 98% | 100% | 95.1% | 106% | 97.7% | 94.1% | 92% | 98.2%
2 | Cc1csc(S(=O)(=O)N(CC(C)C)c2cc3c(cc2OCc2ccc(C(=O)O)cc2)CCC3)n1 [ONO-8130] | > 10 µM | > 10 µM | > 10 µM | > 10 µM | > 10 µM | 0 | 0 | 0 | 0 | 0 | 110% | 95.3% | 96.8% | 94.8% | 93.6% | 98.5% | 101% | 97.6% | 98.5% | 99.5% | 97.9% | 103% | 97.5% | 101% | 95.1% | 107% | 102% | 99.3% | 97% | 98.6% | 99% | 104% | 96.4% | 99.2% | 91.6%
3 | C[C@]12C/C(=C/O)C(=O)C[C@@H]1CC[C@@H]1[C@@H]2CC[C@@]2(C)[C@H]1CC[C@]2(C)O [Oxymetholone] | > 10 µM | > 10 µM | > 10 µM | > 10 µM | > 10 µM | 0 | 0 | 0 | 0 | 0 | 101% | 108% | 96% | 111% | 96% | 117% | 97.6% | 97.3% | 102% | 101% | 102% | 97.8% | 99.6% | 97% | 98.1% | 97.4% | 101% | 106% | 104% | 96.3% | 100% | 87.8% | 102% | 90.4% | 96.1%
4 | O[C@@H](Cc1ccncc1)C(Cl)(Cl)Cl [PETCM] | > 10 µM | > 10 µM | > 10 µM | > 10 µM | > 10 µM | 0 | 0 | 0 | 0 | 0 | 101% | 103% | 95.2% | 99.3% | 97.8% | 98.8% | 89.8% | 114% | 95.3% | 110% | 98.8% | 93.3% | 99.1% | 93.3% | 99.1% | 94.7% | 97.1% | 96% | 102% | 98.2% | 99.4% | 95.8% | 103% | 98.7% | 105%
